What was measured:
Type in all cases: cell-based, human
[1] = test system: MCF7 CMV-fLuc subclones #44 and #48; experiment: PKC activator dose response, cap-dependent translation (fLuc); details: single-Toxin
Procedure: Following 6 hr exposure to the Single-Toxin TPA assay, cells were lysed and fLuc protein activity measured using a standard microplate reader assay. The raw values were averaged and expressed as the ratio of treated to untreated samples (Fold Induction).
Dashed lines represent translational response levels produced by a 100 nM TPA Single-Toxin assay. The Bryostatin 1 concentrations (top panel) encompassed the TPA concentrations used in FIG. 27A. […] The Bryostatin 2 dose response curve (bottom panel) employed higher drug concentrations (the maximal tested dose was 5× the largest TPA and Bryostatin 1 amounts). At the highest tested dose (2.5 uM), Bryostatin 2 produced fLuc activity consistent with the level observed with 100 nM TPA.
In addition to measuring cap-dependent and cap-independent translational effects, Class-specific translational activity and toxin-defined actions, the previously described materials and methods allow for a variety of applications designed to detect and characterize agents and processes that regulate ribosome activity. In this example, comparative dose response assays were used to detect cap-dependent and cap-independent translational regulation in MCF7 cells. The basis for this application was the observation that distinct translational responses are produced by compounds at different doses. When an assortment of compounds act on a common molecular target, they can be grouped into a genus of related drugs. By comparing individual species of a compound genus over a defined dose range, differences in translational regulation can be defined. Furthermore, these translational differences can often be linked to biological differences.
In this example (FIG. 27), the three PKC activators produced similar dose response trends in cap-dependent assays. […] However, macrolide lactones produced translational increases that were generally 60-70% of the TPA translational response (FIG. 27B). In fact, a 25 fold increase in Bryostatin 2 concentration (2.5 uM) was needed to produce a translational magnitude similar to the 100 nM TPA assay (FIG. 27B).

[2] = test system: MCF7 mTRdm-fLuc subclones #8, #27, and #45; experiment: PKC activator dose response, cap-independent TR translation (fLuc); details: single-Toxin
Procedure: Following 6 hr culture with a TPA single-Toxin assay, cells were lysed and fLuc protein activity measured using a standard microplate reader assay. The plate reader values were averaged and expressed as the ratio of treated to untreated samples (Fold Induction).
As with FIG. 27B, dashed lines represent translational response levels achieved by the 100 nM TPA assay in each cell line. […] A further difference between the cap-dependent and cap-independent assays was the observation that increased Bryostatin 2 concentrations (5× the maximal TPA dose) never produced fLUC activity equivalent to the 100 nM TPA assay. Thus, the Toxin Assay procedure can detect a statistically significant difference in cap-dependent and cap-independent translation in compounds that activate PKC activity.
In the cap-independent assays, a similar dose response trend was observed over a 1 nM to 250 nM range with a translational peak at a 100 nM dose. However, the magnitude of the Bryostatin increases were generally 30% of 100 nM TPA response.

[3] = test system: HEK293 CMV-fLUC #3, hTRdm-fLUC #13 and mTRdm-fLUC #45 subclones; experiment: Translation elongation inhibitor single-Toxin and two-Toxin (100 nM TPA) dose response; details: for low dose sufficient to reduce reporter protein levels below untreated control cells: HEK293 CMV-fLUC #3 and mTRdm-fLUC #45 subclones; for reporter protein level versus untreated control: 25 uM inhibitor + 100 nM TPA, HEK293 mTRdm-fLUC #45 subclone
Procedure: At sufficiently large doses, these inhibitors immediately stop protein translation, and the resulting protein turnover reduces reporter protein levels below untreated cell levels (<100% control).
For the HEK293 CMV-fLUC #3 (top panel) and mTRdm-fLUC #45 (bottom panel) subclones, anisomycin and emetine antagonized the TPA response at the lowest tested dose (10 nM) and reduced reporter protein levels 50-300% compared to the TPA single-Toxin assay. This contrasted with puromycin, which required a 250 nM concentration (25×) to initially reduce protein synthesis below the TPA Single-Toxin assay level in all three cell lines. […] For example, the CMV-fLUC #3 subclone required a 2.5 uM puromycin dose to correlate with the other inhibitors, which contrasted with hTRdm-fLUC #13 and mTRdm-fLUC #45 subclones which needed a 25 uM puromycin concentration (a 10× increase).
In this example (FIG. 33), single-Toxin and two-Toxin dose responses were used to define translational responses associated with translation inhibitors. Inhibitors of protein biosynthesis generally act by interfering with translational initiation (assembly of the components or structures required for translation) or elongation (enzymatic process of peptide synthesis and chain movement within the ribosome). A variety of translational inhibitors exist that affect each of these stages. Due to the fact that cap-dependent and cap-independent translation display distinct translational initiation mechanisms, this example focused on translational inhibitors associated with peptide elongation. Since the majority of these enzymatic processes are common to cap-dependent and cap-independent translation, any significant differences in chain elongation reflect differences in peptide synthesis.
A dose response single-Toxin assay was used to examine translation regulation in HEK293 cells (FIG. 33A). […] For example, translation inhibition stops reporter protein production, and protein turnover reduces reporter activity below the basal level. In this example, a 250 nM concentration of each inhibitor was sufficient to reduce protein synthesis below control cell levels in cap-dependent and cap-independent assays (FIG. 33A). Furthermore, any dose above 2.5 uM produced only minimal additional reductions in reporter protein activity supporting the theory that translation in these assays had ceased.
In a second effort, a two-Toxin dose response assay was performed by varying the concentration of the elongation inhibitors in combination with the 100 nM TPA activator (FIG. 33B). This combinatorial assay was designed to examine protein synthesis in stimulated cells preferentially translating the TR transcript. As in the single-Toxin assays, cap-dependent translation was arrested by 2.5 uM puromycin (top panel) which contrasted with the cap-independent assays where a 10× increase in puromycin concentration (25 uM) was needed to prevent new protein synthesis. However even at this highest tested dose, immediate translation inhibition was not observed in any cell line (FIG. 33C).

[4] = test system: MCF7 CMV-fLuc subclone #65; experiment: Topoisomerase 1 inhibitor single-Toxin and two-Toxin (100 nM TPA) dose response, cap-dependent; details: 10 nM to 10 uM; for dose at peak of fLuc protein expression: 6 hr; for dose at peak of fLuc protein expression / effect on TPA-specific translational response: cap-dependent; for effect on TPA-specific translational response: two-Toxin with constant 100 nM TPA
Procedure: FIG. 28A illustrates a dose response assay of the MCF7 CMV-fLuc subclone #65 treated with varying doses (10 nM to 10 uM range) of the following Topoisomerase 1 inhibitors: camptothecin, topotecan, irinotecan, and rubitecan. Following a 6 hr incubation in a single-Toxin assay, cells were lysed and fLuc protein activity measured using a standard microplate reader assay. The plate reader values were averaged and expressed as the ratio of treated to untreated samples (Fold Induction). The dashed line represents the level of translational response in untreated cell samples.
FIG. 28B illustrates the use of a Combinatorial Assay to examine the effects of Topoisomerase 1 inhibitors on cap-dependent translation. A series of dose response assays were performed on the MCF7 CMV-fLuc subclone #65 using varying doses of the Topoisomerase 1 inhibitors (10 nM to 10 uM range) in a Two-Toxin assay with a constant 100 nM TPA dose. The plate reader values were averaged and expressed as the ratio of treated to untreated samples (Fold Induction). The dashed line represents the level of translational response in untreated samples.
FIG. 28A illustrates a cap-dependent dose response assay of MCF7 cells treated with varying dosages (10 nM to 10 uM range) of the following TopoI inhibitors: camptothecin, topotecan, irinotecan, and rubitecan. […] While the altered irinotecan response might have been predicted based on its metabolic requirements, the lack of topotecan action on cap-dependent translation in the single-Toxin assays was unexpected.
Since similar doses inhibited translation in the single-Toxin assays (FIG. 28A), this effect might have represented a direct effect on translation.

[5] = test system: MCF7 mTRdm-fLuc subclone #27; experiment: Topoisomerase 1 inhibitor single-Toxin and two-Toxin (100 nM TPA) dose response, cap-independent; details: 10 nM to 10 uM; for effect on cap-independent translation: single-Toxin; for effect on TPA activity: two-Toxin with 100 nM TPA
Procedure: FIG. 28C illustrates the use of single-Toxin Assays to measure the effects of Topoisomerase 1 inhibitors on cap-independent translation in MCF7 cells. Triplicate samples of the MCF7 mTRdm-fLuc subclone #27 were treated with varying concentrations (10 nM to 10 uM range) of the Topoisomerase 1 inhibitors; camptothecin, rubitecan, irinotecan and topotecan. The plate reader values were averaged and expressed as the ratio of treated to untreated samples (Fold Induction). The dashed line represents the level of translational response in untreated controls.
FIG. 28D illustrates the use of a two-Toxin Combinatorial Assay on the MCF7 mTRdm-fLuc subclone #27 treated with 100 nM TPA plus varying doses (10 nM to 10 uM range) of the Topoisomerase 1 inhibitors. The plate reader values were averaged and expressed as the ratio of treated to untreated samples (Fold Induction). The dashed line represents the level of translational response in untreated samples. All four inhibitors acted synergistically with TPA to increase protein activity in the 10 nM two-Toxin assay.
FIG. 28D illustrates the use of a two-Toxin dose response assay using varying dosages of the TopoI inhibitors in combination with the 100 nM TPA translational activator. All four inhibitors acted synergistically with TPA at low doses to increase protein translation. At concentrations higher than 100 nM, camptothecin, rubitecan, and topotecan antagonized the TPA response and reduced the fLUC expression.

## CCC/C=C/C=C/C(=O)O[C@H]1/C(=C/C(=O)OC)C[C@H]2C[C@H]([C@@H](C)O)OC(=O)C[C@H](O)C[C@@H]3C[C@H](OC(C)=O)C(C)(C)[C@](O)(C[C@@H]4C/C(=C/C(=O)OC)C[C@H](/C=C/C(C)(C)[C@]1(O)O2)O4)O3 [Bryostatin 1]
[1]; 500 pM to 500 nM
  magnitude of reporter activity versus 100 nM TPA assay: never reached the fLuc activity level produced by the 100 nM TPA assay
[1]; 6 hr
  dose giving maximal reporter level (translational peak): 100 nM
[2]
  magnitude of translational response versus 100 nM TPA tests: never reached the fLuc activity produced in 100 nM TPA tests
[2]; 6 hr
  dose giving peak fLuc protein activity: 100 nM

## COc1ccc(C[C@H]2NC[C@H](O)[C@H]2OC(C)=O)cc1 [anisomycin]
[3]; 10 nM inhibitor + 100 nM TPA, CMV-fLUC #3 and mTRdm-fLUC #45
  reduction of reporter protein levels compared to the TPA single-Toxin assay: 50-300%
[3]; single-Toxin
  low dose sufficient to reduce reporter protein levels below untreated control cells: ~25 nM

## CC[C@@]1(O)C(=O)OCc2c1cc1n(c2=O)Cc2cc3ccccc3nc2-1 [camptothecin]
[4]; single-Toxin
  dose at peak of fLuc protein expression: ~1 µM
[4]
  effect on TPA-specific translational response: acted synergistically with TPA to increase fLUC protein activity up to a 1 uM dose
[5]
  effect on cap-independent translation: exhibited reduced fLUC activity at higher doses (5 uM and 10 uM)
  effect on TPA activity: antagonized the TPA activity and exhibited reduced fLUC expression

## C[C@@H]1C[C@@H]([C@H](O)CC2CC(=O)NC(=O)C2)C(=O)[C@@H](C)C1 [cycloheximide]
[3]
  reporter protein level versus untreated control: little or no reduction below untreated control cell levels

## CC[C@H]1CN2CCc3cc(OC)c(OC)cc3[C@@H]2C[C@@H]1C[C@H]1NCCc2cc(OC)c(OC)cc21 [emetine]
[3]
  reporter protein level versus untreated control: little or no reduction below untreated control cell levels
[3]; single-Toxin
  low dose sufficient to reduce reporter protein levels below untreated control cells: 100 nM

## CCc1c2c(nc3ccc(OC(=O)N4CCC(N5CCCCC5)CC4)cc13)-c1cc3c(c(=O)n1C2)COC(=O)[C@]3(O)CC [irinotecan]
[4]; single-Toxin
  effect on cap-dependent translation: neither topotecan or irinotecan significantly altered cap-dependent translation
[4]
  effect on TPA-specific translational response: did not produce any significant change in the TPA-specific translational response
[5]
  effect on cap-independent translation: constant amount of fLUC activity at all tested concentrations
  effect on TPA activity: displayed synergistic action with TPA and enhanced fLUC activity at all tested doses

## COc1ccc(C[C@H](N)C(=O)N[C@H]2[C@@H](O)[C@H](n3cnc4c(N(C)C)ncnc43)O[C@@H]2CO)cc1 [puromycin]
[3]
  reporter protein level versus untreated control: little or no reduction below untreated control cell levels
[3]; single-Toxin, cap-dependent and cap-independent
  concentration required to reduce reporter protein levels to levels comparable to the other three inhibitors: 2.5 µM
[3]; two-Toxin with 100 nM TPA, CMV-fLUC #3 subclone, cap-dependent
  dose required to correlate with the other inhibitors (translation arrested): 2.5 µM
[3]; two-Toxin with 100 nM TPA, all three cell lines
  concentration required to initially reduce protein synthesis below the TPA Single-Toxin assay level: 250 nM
[3]; two-Toxin with 100 nM TPA, hTRdm-fLUC #13 and mTRdm-fLUC #45, cap-independent
  concentration needed to correlate with the other inhibitors (prevent new protein synthesis): 25 µM

## CC[C@@]1(O)C(=O)OCc2c1cc1n(c2=O)Cc2cc3c([N+](=O)[O-])cccc3nc2-1 [rubitecan]
[4]; single-Toxin
  dose at peak of fLuc protein expression: ~1 µM
[4]
  effect on TPA-specific translational response: acted synergistically with TPA to increase fLUC protein activity up to a 1 uM dose
[5]
  effect on cap-independent translation: exhibited reduced fLUC activity at higher doses (5 uM and 10 uM)
  effect on TPA activity: antagonized the TPA activity and exhibited reduced fLUC expression

Reference: patent US9388405B2, “Method for identifying a subpopulation of mammalian cells with distinctive ribosome translation profiles” (priority 2009, dated 2016)
